The results in this text go back to US4996214A, “Quinolinyl substituted phenyl/thioalkanoic acid substituted propionic acids and leucotriene antagonist use thereof” (SmithKline Beecham Corporation, priority 1990, dated 1991).

The assay deals with T1, LTD4 (Cavia porcellus, UniProt Q2NNR5).
T1 construct: tracheal spiral strips of approximate dimensions 2 to 3 mm cross-sectional width; from tissue; host or cells: guinea pig (adult male albino Hartley) tracheal spiral strips
T1 sequence (Q2NNR5 1-340): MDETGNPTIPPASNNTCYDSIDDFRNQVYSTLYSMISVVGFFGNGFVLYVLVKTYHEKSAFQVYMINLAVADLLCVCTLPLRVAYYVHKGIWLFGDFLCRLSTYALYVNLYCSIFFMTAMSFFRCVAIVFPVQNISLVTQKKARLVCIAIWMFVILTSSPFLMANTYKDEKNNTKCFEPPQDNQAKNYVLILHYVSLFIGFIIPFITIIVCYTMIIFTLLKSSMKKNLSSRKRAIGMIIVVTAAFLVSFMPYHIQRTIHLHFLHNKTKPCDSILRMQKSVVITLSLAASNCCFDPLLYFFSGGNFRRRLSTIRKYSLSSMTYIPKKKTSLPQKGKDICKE
The experiment in a line: inhibition of leukotriene (LTD4) induced contraction of guinea pig tracheal tissues in vitro. In kind it is cell-based. How it is done: The leukotriene antagonist activity of the compounds of this invention was measured by the ability of the compounds to inhibit the leukotriene induced contraction of guinea pig tracheal tissues in vitro. The following methodology was employed: In vitro: Guinea pig (adult male albino Hartley strain) tracheal spiral strips of approximate dimensions 2 to 3 mm cross-sectional width and 3.5 cm length were bathed in modified Krebs buffer in jacketed 10 ml tissue bath and continuously aerated with 95% O2 /5% CO2. The tissues were connected via silk suture to force displacement transducers for recording isometric tension. The tissues were equilibrated for 1 hour, pretreated for 15 minutes with meclofenamic acid ([…]) to remove intrinsic prostaglandin responses, and then pretreated for an additional 30 minutes with either the test compound or vehicle control. […]
Calculations: The averages of the triplicate LTD4 concentration-response curves both in the presence and absence of the test compound were plotted on log graph paper. The concentration of LTD4 needed to elicit 30% of the contraction elicited by carbachol was measured and defined as the EC30. The -log KB value for the test compound was determined by the following equations: [formula] […]
The antagonist activity of representative compounds of this invention is tabulated below. The -log KB values were calculated from the above test protocols. […]

By Ki is commonly meant a dissociation constant, usually derived from enzyme kinetics or from competition with a known ligand. Low values mean tighter binding, high ones weaker binding.

The structures appear in SMILES notation.

Consider `O=C(O)CCSC(CC(=O)O)c1ccccc1CCCCCCCc1ccc2ccc(Cl)cc2n1` (centres unmarked) [3-{2-[7-(2-(7-Chloro)quinolinyl)heptyl]phenyl}-3,3'-thiodipropionic acid], for which, under “LTD4 concentration-response on guinea pig tracheal spiral strips, EC30 shift, 30 min pretreatment with test compound, read-out: pKB (-log KB) (converted)”, the Kb is 0.0316 µM. For the setting “stated as 'in this assay', separate method not given”, this compound showed a Ki of 0.0077 µM.
